Experimental findings from US7514245B2, “Method for producing chiral α-hydroxycarboxylic acids by enzymatic hydrolysis of chiral cyanohydrins” (DSM Fine Chemicals Austria NFG GmbH & Co. KG, priority 2003, dated 2009) are described below.

For assay [1], the target named is T1, nitrile hydratase of Rhodococcus erythropolis NCIMB 11540 (Rhodococcus erythropolis, UniProt P13448+P13449).
T1 construct: made in house; host or cells: E. coli B BL21 (plasmid pMS470Nhase7.3 or pMSNhasetactac7.3), crude lysate
T1 sequence (P13448 1-207): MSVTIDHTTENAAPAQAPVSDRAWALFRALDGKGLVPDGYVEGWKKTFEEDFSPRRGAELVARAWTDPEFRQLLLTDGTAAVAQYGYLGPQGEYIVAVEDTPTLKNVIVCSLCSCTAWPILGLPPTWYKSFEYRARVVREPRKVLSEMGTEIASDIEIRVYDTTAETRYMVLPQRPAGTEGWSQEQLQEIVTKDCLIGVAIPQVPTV
T1 sequence (P13449 1-212): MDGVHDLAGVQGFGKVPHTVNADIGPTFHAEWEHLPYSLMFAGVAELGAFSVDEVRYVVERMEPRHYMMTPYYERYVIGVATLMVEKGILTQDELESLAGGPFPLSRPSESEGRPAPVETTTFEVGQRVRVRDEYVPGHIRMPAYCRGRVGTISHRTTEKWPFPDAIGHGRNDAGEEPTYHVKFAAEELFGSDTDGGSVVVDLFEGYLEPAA
The experiment in a line: Hydrolysis using the recombinant enzyme (crude lysate of E. coli clone 7.3). It is filed as biochemical. As to conditions: substrate approximately 10 mM, 5% DMSO, 30° C., pH 7; for Activity of the nitrile hydratase: relative to 2-hydroxy-4-phenylbutyronitrile (100%). The protocol: In these reactions, cloned nitrile hydratase of Rhodococcus erythropolis NCIMB 11540 was used as crude lysate of E. coli clone 7.3 (produced according to Example 9).
50 μl of crude lysate were diluted with 425 μl of buffer (K/Na—PO4 buffer, pH 7, 50 mM) and admixed with 25 μl of an approximately 220 mM substrate solution in DMSO (5 mg of protein/ml substrate concentration approximately 10 mM, 5% DMSO). The reaction was carried out in the Thermomixer at 30° C. and 1000 rpm. After 0, 2, 4, 6, 8, 10, 15, 20, 30, 60 and 120 minutes, in each case one Eppendorf was admixed with 0.5 ml of 1N HCl. After centrifugation (5 min, 13 000 rpm) and corresponding dilution, the concentrations of cyanohydrin and hydroxyamide were determined by HPLC. The activity of the nitrile hydratase was determined from the velocity of formation of hydroxyamide (gradient in the initial range). The standard substrate (100% activity) used was 2-hydroxy-4-phenylbutyronitile. The activity in the hydrolysis of the other substrates was compared with the activity on 2-hydroxy-4-phenylbutyronitrile (Tab. 5).

In assay [2] the test system is Rhodococcus erythropolis NCIMB 11540 cells. Put plainly: Enzymatic hydrolysis at different substrate concentrations, Experiment 4.1. It is filed as cell-based. As to conditions: 5% DMSO, 30° C. The protocol:
In experiment 4.1, the reaction was carried out on an analytical scale (reaction volume 1 ml) using 3 substrate concentrations (2.2 g/l, 6.6 g/l, 13.2 g/l).
The biocatalyst was produced according to Example 1, Variant II, 2 l of fermentation medium, harvest after 20 hours (OD546 6.1). The cells from 8 times 10 ml of fermentation solution were centrifuged off in culture tubes. The resultant cell mass was washed once in each case with 2 ml K/Na-phosphate buffer (pH 6.5, 50 mM). The contents of 2 tubes were lyophilized for determining the dry weight. • Weight: 1. 37 mg of lyophilized cells/10 ml fermentation solution • 2. 30 mg
The contents of the remaining 6 tubes were resuspended in 950 μl of buffer (OD approximately 40) and transferred to Eppendorfs. To each of these cell suspensions were added 50 μl of variously concentrated substrate solutions (3 concentrations, parallel batches, 5% DMSO as cosolvent). The Eppendorfs were shaken on the Thermomixer at 30° C. and 1000 rpm. For monitoring the conversion rate, in each case 200 μl were withdrawn and admixed with 200 μl of 1N HCl. After centrifugation (5 min, 13 000 rpm) and dilution, the conversion rates were determined by HPLC.
Following concentrations of (R)-2-chloromandelonitrile were used: • a. Substrate solution: 11 mg of (R)-2-chloromandelonitrile in 250 μl of DMSO (approximately 260 mM) • Substrate concentration in the batch: 2.2 g/l (13.1 mM) • b. Substrate solution: 33 mg of (R)-2-chloromandelonitrile in 250 μl of DMSO (approximately […]) • Substrate concentration in the batch: substrate concentration: 6.6 g/l (39.4 mM) • c. Substrate solution: 66 mg of (R)-2-chloromandelonitrile in 250 μl of DMSO (approximately 1580 mM) • Substrate concentration in the batch: 13.2 g/l (78.8 mM)

As to `N#CC(O)CCc1ccccc1` (stereo not shown) [drawing 3], in assay [1], the “Activity of the nitrile hydratase” value was 100%.
Still for that read-out and setting: under `Cc1ccc(C(O)C#N)cc1` (stereo not shown) stands 60%.
Regarding `O=C(O)[C@H](O)c1ccccc1Cl` [(R)-2-chloromandelic acid], the “formation of (R)-2-chloromandelic acid” value came out at 77% in assay [2] (batch a: 2.2 g/l (13.1 mM) (R)-2-chloromandelonitrile, 10 min); 86% in assay [2] (batch a: 2.2 g/l (13.1 mM), 20 min); 92% in assay [2] (batch a: 2.2 g/l (13.1 mM), 30 min); 94% in assay [2] (batch a: 2.2 g/l (13.1 mM), 40 min); 96% in assay [2] (batch a: 2.2 g/l (13.1 mM), 50 min); 45% in assay [2] (batch b: 6.6 g/l (39.4 mM), 10 min). For the same molecule, the “formation of (R)-2-chloromandelic acid” value in assay [2] (batch b: 6.6 g/l (39.4 mM), 20 min) stood at 70%; in assay [2] (batch b: 6.6 g/l (39.4 mM), 30 min), 82%; in assay [2] (batch b: 6.6 g/l (39.4 mM), 40 min), 89%; in assay [2] (batch b: 6.6 g/l (39.4 mM), 50 min), 95%; in assay [2] (batch c: 13.2 g/l (78.8 mM), 10 min), 58%; in assay [2] (batch c: 13.2 g/l (78.8 mM), 20 min), 85%. Besides, the “formation of (R)-2-chloromandelic acid” value in assay [2] (batch c: 13.2 g/l (78.8 mM), 30 min) is given as 96%; in assay [2] (batch c: 13.2 g/l (78.8 mM), 40 min) it was 98%; in assay [2] (batch c: 13.2 g/l (78.8 mM), 50 min), 100%.
For `N#CC(O)CCc1ccccc1` (stereo not shown) [2-hydroxy-4-phenylbutyronitrile], the “activity of the nitrile hydratase in the crude lysate” value in assay [1] (E. coli clone 7.3) was “approximately 0.3 μmol·mg^−1·min^−1”.
Take `N#CC(O)c1ccccc1Cl` (stereo not shown): the “Activity of the nitrile hydratase” value in assay [1] is reported as 100%.
